Experiments:
Assay type in all cases: in vivo
Ipomoea ssp. = experiment: Herbicidal action in the greenhouse (post-emergence treatment); details: S-Metolachlor 62.5 g/ha a.s.
Description: (§1) The mixtures according to the invention were applied pre- or post-emergence (foliar treatment). The herbicidal compounds of component B were applied in the formulation in which they are present as commercially available product.
(§2) Some of the experiments were greenhouse experiments and some were field trials on mini plots (on a site with sandy loam (pH 6.2 to 7.0) or sandy clay (pH 5.0 to 6.7) as the soil).
(§3) The harmful plants differed with regard to size and developmental state; on average, they were 5 to 20 cm long, depending on the growth habit.
(§4) The herbicidally active compounds of components A) and B) were applied in succession or jointly, in the latter case in some cases as a tank mix and in some cases as a readymix, in the form of emulsions, aqueous solutions or suspensions, the vehicle being water ([…]). In the case of the field trials, application was effected with the aid of a mobile plot sprayer.
(§5) The test period extended over 3 to 8 weeks, and the stands were also observed at later points in time.
(§6) Damage by the herbicidal compositions was evaluated with reference to a scale of 0% to 100% in comparison with untreated control plots. 0 means no damage and 100 means complete destruction of the plants.
(§7) In these examples, the value E at which only an additive effect of the individual active ingredients is to be expected was calculated by the method of S. R. Colby (Calculating synergistic and antagonistic responses of herbicide combinations, Weeds 15, 20 pp (1967).

Veronica ssp. = experiment: as above; details: S-Metolachlor 125 g/ha a.s.
Description: as §1, §2, §3, §4, §5, §6, §7

Digitaria sanguinalis = experiment: Herbicidal action in the greenhouse (pre-emergence treatment); details: S-Metolachor 125 g/ha a.s.
Description: as §1, §2, §3, §4, §5, §6, §7

Echinochloa crus-galli = experiment: as above; details: S-Metolachlor 62.5 g/ha a.s.
Description: as §1, §2, §3, §4, §5, §6, §7

Setaria viridis = experiment: as above; details: S-Metolachlor 62.5 g/ha a.s.
Description: as §1, §2, §3, §4, §5, §6, §7

Zea mays = experiment: Phytotoxicity to crop plant in the greenhouse (post-emergence treatment); details: Table 84, S-Metolachlor 125 g/ha a.s.
Description: as §1, §2, §4, §5, §6, §7

Cyperus iria = experiment: Herbicidal action in the field (post-emergence treatment); details: benthiocarb 3000 g/ha a.s.
Description: as §1, §2, §3, §4, §5, §6, §7

Amaranthus retroflexus = experiment: as above; details: dicamba 280 g/ha a.s.
Description: as §1, §2, §3, §4, §5, §6, §7

Sorghum bicolor = experiment: as above; details: dicamba 560 g/ha a.s.
Description: as §1, §2, §3, §4, §5, §6, §7

Lolium perenne = experiment: as above; details: paraquat-dichloride 400 g/ha a.s.
Description: as §1, §2, §3, §4, §5, §6, §7

CCc1cccc(C)c1N(C(=O)CCl)[C@@H](C)COC [S-Metolachlor, S-metolachlor, reference compound]
Damage (Ipomoea ssp.): 0% | Damage (Veronica ssp.): 0% | Damage (Digitaria sanguinalis): 50% | Damage (Echinochloa crus-galli): 65% | Damage (Setaria viridis): 70% | Phytotoxicity (%) (Zea mays): 0%

CCN(CC)C(=O)SCc1ccc(Cl)cc1 [benthiocarb]
Damage (Cyperus iria): 50%

COc1c(Cl)ccc(Cl)c1C(=O)O [dicamba, reference compound]
Damage (Amaranthus retroflexus): 25% | Damage (Sorghum bicolor): 17%

C[n+]1ccc(-c2cc[n+](C)cc2)cc1 [paraquat-dichloride, reference compound]
Damage (Lolium perenne): 97%

From patent publication US20030203819A1, “Synergistically acting herbicidal mixtures” (priority 1998, published 2003)
